From ChEMBL document CHEMBL1153365, “Identification of potent pyrimidine inhibitors of phosphodiesterase 7 (PDE7) and their ability to inhibit T cell proliferation” (Bioorg Med Chem Lett, 2009)
≈ marks a conversion by molar mass, not a printed value.

How the values were obtained:
[1] = Inhibition of PDE7
[2] = Inhibition of PDE1
[3] = Inhibition of PDE3
[4] = Inhibition of PDE4
[5] = target: cGMP-specific 3',5'-cyclic phosphodiesterase (Homo sapiens, UniProt O76074); experiment: Inhibition of PDE5
[6] = test system: PBMC; experiment: Immunosuppressant activity in PBMC assessed as antiproliferation after 3 days by [3H]thymidine incorporation assay; type: functional, cell-based; conditions: Homo sapiens
[7] = test system: PBMC; experiment: Immunosuppressant activity in PBMC assessed as cytotoxicity; type: functional, cell-based; conditions: Homo sapiens
[8] = Aqueous solubility at pH 6.5; type: physicochemical
[9] = test system: Splenocyte; experiment: Immunosuppressant activity in wild type splenocyte assessed as antiproliferation; type: functional, cell-based; conditions: Mus musculus
[10] = Immunosuppressant activity in PDE7 knockout splenocyte assessed as antiproliferation; type: functional, cell-based

IC50 [1] [µM] | IC50 [2] [µM] | IC50 [3] [µM] | IC50 [4] [µM] | IC50 [5] [µM] | solubility [8] [µg/mL] | Compound | IC50 [6] [µM] | IC50 [7] [µM] | IC50 [9] [µM] | IC50 [10] [µM]
0.006 | – | – | – | – | – | CCOC(=O)c1sc(Nc2nc(N3CCNCC3)c3c(n2)N(Cc2cc(OC)c(OC)c(OC)c2)CC3)nc1C | – | – | – | –
0.039 | 4.1 | 27 | 5.1 | 5.2 | > 20 | CCOC(=O)c1sc(Nc2nc(N(C)Cc3cc(OC)c(OC)c(OC)c3)cc(N3CCN(C)CC3)n2)nc1C | 0.69 | > 25 | – | –
0.031 | > 10 | 8 | 2.3 | 0.32 | > 20 | CCOC(=O)c1sc(Nc2nc(NCc3ccc(OC)c(OC)c3)cc(N3CCNCC3)n2)nc1C | 1.2 | 12 | – | –
0.13 | 15 | 13 | 9.5 | > 10 | > 20 | CCOC(=O)c1sc(Nc2nc(N3CCOCC3)cc(N3CCC(N(C)C)CC3)n2)nc1C | 2 | > 25 | – | –
0.1 | > 10 | > 50 | 0.03 | 0.065 | – | CCOC(=O)c1sc(Nc2nc(NC)cc(NCc3ccc(S(N)(=O)=O)cc3)n2)nc1C | 0.5 | > 25 | – | –
0.083 | > 50 | 46 | > 10 | > 10 | > 20 | CCOC(=O)c1sc(Nc2nc(N3CCC(N(C)C)CC3)cc(N3CCN(C)CC3)n2)nc1C | 2.5 | 15 | – | –
0.12 | 11 | > 50 | 9.3 | > 10 | > 20 | CCOC(=O)c1sc(Nc2nc(N3CCC(N(C)C)CC3)cc(N3CCCC(CO)C3)n2)nc1C (stereo not given) | 5 | > 25 | – | –
0.063 | 4.9 | 20 | 3.2 | 0.7 | 20 (≈ 43.2 µM) | CCOC(=O)c1sc(Nc2nc(N3CCC(O)CC3)cc(N3CCC(O)CC3)n2)nc1C | 0.12 | > 25 | 0.21 | 0.15
0.01 | – | – | – | – | – | CCOC(=O)c1sc(Nc2nc(NCc3ccc(S(N)(=O)=O)cc3)c3c(ncn3CC)n2)nc1C | – | – | – | –
0.01 | 7.9 | 22 | 3.2 | 7.6 | > 20 | CCOC(=O)c1sc(Nc2nc(N(C)Cc3cc(OC)c(OC)c(OC)c3)cc(N3CCNCC3)n2)nc1C | 0.45 | 14 | – | –
0.056 | 27 | 19 | 9.4 | > 10 | > 20 | CCOC(=O)c1sc(Nc2nc(N3CCN(C)CC3)cc(N3CCN(CCN(C)C)CC3)n2)nc1C | 2.2 | 15 | – | –
0.082 | 23 | > 50 | 8 | 6.5 | > 20 | CCOC(=O)c1sc(Nc2nc(N3CCC(N(C)C)CC3)cc(N3CCNC(C(N)=O)C3)n2)nc1C (stereo not given) | 3.1 | > 25 | – | –
0.01 | 4.1 | 2.8 | 0.22 | 0.072 | 20 (≈ 37.5 µM) | CCOC(=O)c1sc(Nc2nc(NCc3ccc(S(N)(=O)=O)cc3)cc(N3CCNCC3)n2)nc1C | 7.2 | > 25 | – | –
0.076 | 23 | > 50 | > 10 | > 10 | 20 (≈ 40.8 µM) | CCOC(=O)c1sc(Nc2nc(N3CCC(O)CC3)cc(N3CCC(N(C)C)CC3)n2)nc1C | 1.5 | > 25 | – | –
0.22 | – | – | – | – | – | CCOC(=O)c1sc(Nc2nccc(NCc3ccc(S(N)(=O)=O)cc3)n2)nc1C | – | – | – | –
